Results on eight molecules are retold here after ChEMBL document CHEMBL5356980, “Linker optimization and activity validation of a cell surface vimentin targeted homo-dimeric peptoid antagonist for lung cancer stem cells” (Bioorg Med Chem, 2024).

Molecules are shown by their SMILES. Activity calls are given as the source filed them. The calls are words filed in the database; no cut-off is given here.

One test concerns NCI-H1299. Nature of the test: Antiproliferative activity against human NCI-H1299 cells assessed as reduction in cell viability incubated for 4 days by MTS assay. Format: functional, cell-based. The note with it: for Activity: dose 1000-100000 nM, time 4.0 day.
A further test deals with NCI-H460. Nature of the test: Inhibition of colony formation in human NCI-H460 cells at 20 uM incubated for 8 days by crystal violet staining based analysis. Format: functional, cell-based. To be noted: time 8.0 day.
Another test concerns the target Vimentin (Homo sapiens, UniProt P08670). The test is described as follows: Binding affinity to his-tagged recombinant Vimentin (unknown origin) assessed as dissociation constant by ELISA analysis.

Vimentin, sequence (P08670 whole entry): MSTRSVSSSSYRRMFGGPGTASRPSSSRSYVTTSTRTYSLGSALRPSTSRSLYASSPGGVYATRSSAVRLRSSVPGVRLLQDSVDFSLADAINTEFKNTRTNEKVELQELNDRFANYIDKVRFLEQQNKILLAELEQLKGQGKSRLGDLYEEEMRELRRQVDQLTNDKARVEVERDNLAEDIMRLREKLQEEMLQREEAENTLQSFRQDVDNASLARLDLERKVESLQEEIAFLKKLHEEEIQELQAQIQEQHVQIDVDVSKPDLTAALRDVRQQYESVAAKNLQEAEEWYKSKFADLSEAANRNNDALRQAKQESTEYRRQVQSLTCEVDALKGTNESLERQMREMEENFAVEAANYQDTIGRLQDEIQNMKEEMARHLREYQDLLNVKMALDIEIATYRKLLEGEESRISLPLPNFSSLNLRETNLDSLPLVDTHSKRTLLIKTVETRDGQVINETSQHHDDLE

On to `COCCN(CC(=O)N[C@H](CCCCN)C(=O)N[C@H](CCSC)C(=O)NCC(=O)NCC(=O)NCCCCC(NC(=O)CNC(=O)CNC(=O)[C@@H](CCSC)NC(=O)[C@@H](CCCCN)NC(=O)CN(CCOC)C(=O)CN(Cc1ccc2c(c1)OCO2)C(=O)CN(CC(C)C)C(=O)CN(CCCCN)C(=O)CN(CCCCN)C(=O)CN(CC(C)C)C(=O)CNc1ccc(C(=O)c2ccccc2)cc1)C(N)=O)C(=O)CN(Cc1ccc2c(c1)OCO2)C(=O)CN(CC(C)C)C(=O)CN(CCCCN)C(=O)CN(CCCCN)C(=O)CN(CC(C)C)C(=O)CNc1ccc(C(=O)c2ccccc2)cc1` (stereo partly specified), for which the Activity entry with NCI-H1299 is “Dose-Dependent Effect”.

For `COCCN(CC(=O)N[C@H](CCCCN)C(=O)N[C@H](CCSC)C(=O)NCCCCC(NC(=O)[C@@H](CCSC)NC(=O)[C@@H](CCCCN)NC(=O)CN(CCOC)C(=O)CN(Cc1ccc2c(c1)OCO2)C(=O)CN(CC(C)C)C(=O)CN(CCCCN)C(=O)CN(CCCCN)C(=O)CN(CC(C)C)C(=O)CNc1ccc(C(=O)c2ccccc2)cc1)C(N)=O)C(=O)CN(Cc1ccc2c(c1)OCO2)C(=O)CN(CC(C)C)C(=O)CN(CCCCN)C(=O)CN(CCCCN)C(=O)CN(CC(C)C)C(=O)CNc1ccc(C(=O)c2ccccc2)cc1` (stereo partly specified), the inhibition result with NCI-H460 was “Active”. The Kd on Vimentin stood at 1 µM. Moreover, the Activity entry in the test on NCI-H1299 was “Dose-Dependent Effect”.

On to `COCCN(CC(=O)N[C@H](CCCCN)C(=O)N[C@H](CCSC)C(=O)NCC(=O)NCCCCC(NC(=O)COCCOCCNC(=O)CNC(=O)[C@@H](CCSC)NC(=O)[C@@H](CCCCN)NC(=O)CN(CCOC)C(=O)CN(Cc1ccc2c(c1)OCO2)C(=O)CN(CC(C)C)C(=O)CN(CCCCN)C(=O)CN(CCCCN)C(=O)CN(CC(C)C)C(=O)CNc1ccc(C(=O)c2ccccc2)cc1)C(N)=O)C(=O)CN(Cc1ccc2c(c1)OCO2)C(=O)CN(CC(C)C)C(=O)CN(CCCCN)C(=O)CN(CCCCN)C(=O)CN(CC(C)C)C(=O)CNc1ccc(C(=O)c2ccccc2)cc1` (stereo partly specified), for which the Activity result with NCI-H1299 is “Dose-Dependent Effect”.

For `COCCN(CC(=O)N[C@H](CCCCN)C(=O)N[C@H](CCSC)C(=O)NCCCCC(NC(=O)CNC(=O)[C@@H](CCSC)NC(=O)[C@@H](CCCCN)NC(=O)CN(CCOC)C(=O)CN(Cc1ccc2c(c1)OCO2)C(=O)CN(CC(C)C)C(=O)CN(CCCCN)C(=O)CN(CCCCN)C(=O)CN(CC(C)C)C(=O)CNc1ccc(C(=O)c2ccccc2)cc1)C(N)=O)C(=O)CN(Cc1ccc2c(c1)OCO2)C(=O)CN(CC(C)C)C(=O)CN(CCCCN)C(=O)CN(CCCCN)C(=O)CN(CC(C)C)C(=O)CNc1ccc(C(=O)c2ccccc2)cc1` (stereo partly specified), the Activity result in the test with NCI-H1299 is “Dose-Dependent Effect”.

For `COCCN(CC(=O)N[C@H](CCCCN)C(=O)N[C@H](CCSC)C(=O)NCCOCCOCC(=O)NCCOCCOCC(=O)NCCCCC(NC(=O)COCCOCCNC(=O)COCCOCCNC(=O)[C@@H](CCSC)NC(=O)[C@@H](CCCCN)NC(=O)CN(CCOC)C(=O)CN(Cc1ccc2c(c1)OCO2)C(=O)CN(CC(C)C)C(=O)CN(CCCCN)C(=O)CN(CCCCN)C(=O)CN(CC(C)C)C(=O)CNc1ccc(C(=O)c2ccccc2)cc1)C(N)=O)C(=O)CN(Cc1ccc2c(c1)OCO2)C(=O)CN(CC(C)C)C(=O)CN(CCCCN)C(=O)CN(CCCCN)C(=O)CN(CC(C)C)C(=O)CNc1ccc(C(=O)c2ccccc2)cc1` (stereo partly specified), the Activity result in the test with NCI-H1299 is “Dose-Dependent Effect”.

Turning to `COCCN(CC(=O)N[C@H](CCCCN)C(=O)N[C@H](CCSC)C(=O)NCCOCCOCC(=O)NCCCCC(NC(=O)COCCOCCNC(=O)[C@@H](CCSC)NC(=O)[C@@H](CCCCN)NC(=O)CN(CCOC)C(=O)CN(Cc1ccc2c(c1)OCO2)C(=O)CN(CC(C)C)C(=O)CN(CCCCN)C(=O)CN(CCCCN)C(=O)CN(CC(C)C)C(=O)CNc1ccc(C(=O)c2ccccc2)cc1)C(N)=O)C(=O)CN(Cc1ccc2c(c1)OCO2)C(=O)CN(CC(C)C)C(=O)CN(CCCCN)C(=O)CN(CCCCN)C(=O)CN(CC(C)C)C(=O)CNc1ccc(C(=O)c2ccccc2)cc1` (stereo partly specified), in the test with NCI-H1299, the Activity entry was “Dose-Dependent Effect”.

For the molecule `COCCN(CC(=O)N[C@H](CCCCN)C(=O)N[C@H](CCSC)C(=O)NCC(=O)NCCCCC(NC(=O)CNC(=O)CNC(=O)[C@@H](CCSC)NC(=O)[C@@H](CCCCN)NC(=O)CN(CCOC)C(=O)CN(Cc1ccc2c(c1)OCO2)C(=O)CN(CC(C)C)C(=O)CN(CCCCN)C(=O)CN(CCCCN)C(=O)CN(CC(C)C)C(=O)CNc1ccc(C(=O)c2ccccc2)cc1)C(N)=O)C(=O)CN(Cc1ccc2c(c1)OCO2)C(=O)CN(CC(C)C)C(=O)CN(CCCCN)C(=O)CN(CCCCN)C(=O)CN(CC(C)C)C(=O)CNc1ccc(C(=O)c2ccccc2)cc1` (stereo partly specified), in the test with NCI-H1299, the Activity result was “Dose-Dependent Effect”.

Regarding `COCCN(CC(=O)N[C@H](CCCCN)C(=O)N[C@H](CCSC)C(=O)NCC(=O)NCCCCC(NC(=O)CNC(=O)[C@@H](CCSC)NC(=O)[C@@H](CCCCN)NC(=O)CN(CCOC)C(=O)CN(Cc1ccc2c(c1)OCO2)C(=O)CN(CC(C)C)C(=O)CN(CCCCN)C(=O)CN(CCCCN)C(=O)CN(CC(C)C)C(=O)CNc1ccc(C(=O)c2ccccc2)cc1)C(N)=O)C(=O)CN(Cc1ccc2c(c1)OCO2)C(=O)CN(CC(C)C)C(=O)CN(CCCCN)C(=O)CN(CCCCN)C(=O)CN(CC(C)C)C(=O)CNc1ccc(C(=O)c2ccccc2)cc1` (stereo partly specified), the concentration for half-maximal inhibition (IC50) in the test on NCI-H1299 (NCI-H1299, 96 h) worked out at 6 µM. Moreover, the Activity entry with NCI-H1299 was “Dose-Dependent Effect”.
